# In patent US20250171460A1, “INDUCERS OF KLF2 AND METHODS OF USE THEREOF” (Riparian Pharmaceuticals, Inc., priority 2022, published 2025):
# System: primary human endothelial cells expressing luciferase under the control of the KLF2 promoter
# Assay: KLF2 Induction Cell Based Bioassay (luciferase reporter)
# Settings: Bioactivity of stereoisomers: S isomer
# Description: In endothelial cell culture media, a stock of the highest working concentration was made at no more than 1% DMSO vehicle. The working stock was then serially diluted 1:2 to make an 11-point concentration response curve. Included in the 96-well plate were 2 reference compounds with known potencies. A DMSO column was included in the 96-well plate at the highest percent vehicle of the working stocks. The 96-well cell culture plate of primary human endothelial cells expressing luciferase under the control of the KLF2 promoter was dosed with 200 μL per well of the dilution series as well as the DMSO control column. The assay plate was incubated at 37° C. for 24 hours. The supernatant was collected at 24 hours.
# 20 μL of the supernatant was then placed in a 384-well plate with optical duplicates. The corners of the plate received 20 μL of the Gaussia Luciferase Enzyme positive control, as well as 20 μL of the 50 μM Coelenterizine substrate. The plate read is then calibrated using the control, and read using a Molecular Devices SpectraMax iD5, providing luminescence in relative light units (RLU). The plate reader injected 20 μL of the 50 μM Coelenterizine substrate immediately before taking the RLU measurement for each well.
# The sample signals were then normalized to the average signal of the DMSO column, as well as to the maximum signal of one of the reference compounds, as shown in the equations below: […]
# The EC50 of each compound is then defined as when the concentration response curve passes 0.5.
row,SMILES,"Bioactivity Bucket, S"
1,COCCN1C(=O)c2oc3cc(C(=O)NC4(C)COC4)ccc3c2OC[C@@]1(C)C(=O)NCc1c(F)cccc1OC [Example 135],inactive
2,COCCOCCn1cc(CCN2C(=O)c3oc4ccccc4c3OC[C@@]2(C)C(=O)NCc2ccccc2OC)nn1 [Example 136],inactive
3,C#CCCN1C(=O)c2oc3ccccc3c2OC[C@@]1(C)C(=O)NCc1ccccc1OC [Example 138],inactive

# Same assay, conditions: Homo sapiens, Endothelial cell, 24 h, KLF2 promoter luciferase, 24 hours, 11-point concentration response; read-out: Activity Range (EC50)
row,EC50,SMILES
1,51 to 500 nM,"COc1cccc(F)c1CNC(=O)C1(C)COc2c(oc3cc(-c4ncco4)cnc23)C(=O)N1CC(=O)N(C)C (centres unmarked) [Example 124, 4-(2-(dimethylamino)-2-oxoethyl)-N-(2-fluoro-6-methoxybenzyl)-3-methyl-8-(oxazol-2-yl)-5-oxo-2,3,4,5-tetrahydropyrido[2′,3′:4,5]furo[2,3-f][1,4]oxazepine-3-carboxamide]"
2,≤ 50 nM,"COc1cccnc1CNC(=O)[C@@]1(C)COc2c(oc3cc(-c4ncco4)ccc23)C(=O)N1CC(=O)N(C)C [Example 125, (R)-4-(2-(dimethylamino)-2-oxoethyl)-N-((3-methoxypyridin-2-yl)methyl)-3-methyl-8-(oxazol-2-yl)-5-oxo-2,3,4,5-tetrahydrobenzofuro[2,3-f][1,4]oxazepine-3-carboxamide]"
3,≤ 50 nM,[2H]C([2H])([2H])N(C(=O)CN1C(=O)c2oc3cc(-c4nc(C(F)(F)F)cs4)ccc3c2OC[C@]1(C)C(=O)NCc1ncccc1OC)C([2H])([2H])[2H] [Example 126]
4,≤ 50 nM,[2H]C([2H])([2H])N(C(=O)CN1C(=O)c2oc3cc(-c4ncco4)ccc3c2OC[C@]1(C)C(=O)NCc1ncccc1OC)C([2H])([2H])[2H] [Example 127]
5,≤ 50 nM,COc1cccnc1CNC(=O)[C@@]1(C)COc2c(oc3cc(-c4nc(C(F)(F)F)cs4)ccc23)C(=O)N1CC(=O)N(C)C [Example 128]
6,≤ 50 nM,"COc1cccnc1CNC(=O)[C@@]1(C)COc2c(oc3cc(-c4nc(C#N)co4)ccc23)C(=O)N1CC(=O)N(C)C [Example 129, (R)-8-(4-cyanooxazol-2-yl)-4-(2-(dimethylamino)-2-oxoethyl)-N-((3-methoxypyridin-2-yl)methyl)-3-methyl-5-oxo-2,3,4,5-tetrahydrobenzofuro[2,3-f][1,4]oxazepine-3-carboxamide]"
7,51 to 500 nM,"COc1cccc(F)c1CNC(=O)C1(C)COc2c(oc3ccc(C(F)(F)F)cc23)C(=O)N1CC(=O)N(C)C (centres unmarked) [Example 131, 4-(2-(dimethylamino)-2-oxoethyl)-N-(2-fluoro-6-methoxybenzyl)-3-methyl-5-oxo-9-(trifluoromethyl)-2,3,4,5-tetrahydrobenzofuro[2,3-f][1,4]oxazepine-3-carboxamide]"
8,51 to 500 nM,"COc1cccc(F)c1CNC(=O)C1(C)COc2c(oc3ccc(C)cc23)C(=O)N1CC(=O)N(C)C (centres unmarked) [Example 133, 4-(2-(dimethylamino)-2-oxoethyl)-N-(2-fluoro-6-methoxybenzyl)-3,9-dimethyl-5-oxo-2,3,4,5-tetrahydrobenzofuro[2,3-f][1,4]oxazepine-3-carboxamide]"
9,51 to 500 nM,"COc1cccc(F)c1CNC(=O)[C@@]1(C)COc2c(oc3cc(C(F)(F)F)cnc23)C(=O)N1CC(=O)N(C)C [Example 134, (R)-4-(2-(dimethylamino)-2-oxoethyl)-N-(2-fluoro-6-methoxybenzyl)-3-methyl-5-oxo-8-(trifluoromethyl)-2,3,4,5-tetrahydropyrido[2′,3′:4,5]furo[2,3-f][1,4]oxazepine-3-carboxamide]"

# Further lines, the compound ahead of its results:
row,SMILES,EC50
1,COc1cccc(F)c1CNC(=O)[C@@]1(C)COc2c(oc3ccc(F)cc23)C(=O)N1CC(=O)N1CC[C@H]1CO [Example 117],51 to 500 nM
2,COc1cccc(F)c1CNC(=O)[C@@]1(C)COc2c(oc3ccc(F)cc23)C(=O)N1Cc1nnn(CCO)n1 [Example 118],51 to 500 nM
3,COc1ccc(F)cc1CNC(=O)[C@@]1(C)COc2c(oc3ccc(F)cc23)C(=O)N1Cc1nnn(CCO)n1 [Example 119],51 to 500 nM
4,"COc1cccnc1CNC(=O)[C@@]1(C)COc2c(oc3ccc(F)cc23)C(=O)N1Cc1cn(CCO)nn1 [Example 120, (R)-9-fluoro-4-((1-(2-hydroxyethyl)-1H-1,2,3-triazol-4-yl)methyl)-N-((3-methoxypyridin-2-yl)methyl)-3-methyl-5-oxo-2,3,4,5-tetrahydrobenzofuro[2,3-f][1,4]oxazepine-3-carboxamide]",51 to 500 nM
5,"COc1ccccc1CNC(=O)C1(C)COc2c(oc3cc(C(=O)NC4(C)COC4)cnc23)C(=O)N1CC(=O)N(C)C (centres unmarked) [Example 121, 4-(2-(dimethylamino)-2-oxoethyl)-N3-(2-methoxybenzyl)-3-methyl-N8-(3-methyloxetan-3-yl)-5-oxo-2,3,4,5-tetrahydropyrido[2′,3′:4,5]furo[2,3-f][1,4]oxazepine-3,8-dicarboxamide]",51 to 500 nM
6,COCCN1C(=O)c2oc3cc(C(=O)NC4(C)COC4)cnc3c2OCC1(C)C(=O)NCc1ccccc1OC (centres unmarked) [Example 122],51 to 500 nM
7,COCCN1C(=O)c2oc3cc(C(=O)NC4(C)COC4)cnc3c2OCC1(C)C(=O)NCc1c(Cl)cccc1OC (centres unmarked) [Example 123],51 to 500 nM

# Same assay, conditions: Homo sapiens, Endothelial cell, Bioactivity of stereoisomers: R isomer; read-out: Bioactivity Bucket, R
row,EC50,SMILES
1,≤ 50 nM,"COc1cccnc1CNC(=O)[C@@]1(C)COc2c(oc3cc(-c4nc(C#N)co4)ccc23)C(=O)N1CC(=O)N(C)C [Example 129, (R)-8-(4-cyanooxazol-2-yl)-4-(2-(dimethylamino)-2-oxoethyl)-N-((3-methoxypyridin-2-yl)methyl)-3-methyl-5-oxo-2,3,4,5-tetrahydrobenzofuro[2,3-f][1,4]oxazepine-3-carboxamide]"
